Patent publication US20100272773A1, “Use of Drug Polymorphs to Achieve Controlled Drug Delivery From a Coated Medical Device” (BOSTON SCIENTIFIC SCIMED, INC., priority 2009, published 2010)

Experiment: Calculated time for complete dissolution of Ptx transferred to the vessel
Type: physicochemical
Conditions: ~23 μg Ptx transferred to vessel divided by dissolution rate
From the text: The ability to control the Ptx morphology on a drug coated balloon is important in achieving proper dosing. This is illustrated by the following example. […] Other factors such as particle size will also influence dissolution.

Time for complete dissolution | Time for complete dissolution of the Ptx | Compound
about 10 days |  | CC(=O)O[C@H]1C(=O)[C@@]2(C)[C@H]([C@H](OC(=O)c3ccccc3)[C@]3(O)C[C@H](OC(=O)[C@H](O)[C@@H](NC(=O)c4ccccc4)c4ccccc4)C(C)=C1C3(C)C)[C@]1(OC(C)=O)CO[C@@H]1C[C@@H]2O [PTx 2H2O Crystalline, paclitaxel]
 | about 1 day | CC(=O)O[C@H]1C(=O)[C@@]2(C)[C@H]([C@H](OC(=O)c3ccccc3)[C@]3(O)C[C@H](OC(=O)[C@H](O)[C@@H](NC(=O)c4ccccc4)c4ccccc4)C(C)=C1C3(C)C)[C@]1(OC(C)=O)CO[C@@H]1C[C@@H]2O [PTx Anhydrous Crystal, paclitaxel]
